Measured values from patent US7741283B2, “Compositions and methods for inhibiting cell proliferation” (St. Louis University, priority 2003, dated 2010).
Values joined by “and” are separate entries in the source; they are usually repeats but may differ in a detail not shown here. Identical values can stand only once.

Legend:
[1] = system: Mv1Lu cells; test: [methyl-3H] thymidine incorporation (DNA synthesis), Mv1Lu cells; format: cell-based, mink; details: IGFBP-3 0.5 μg/ml, Mv1Lu
[2] = system: Mv1Lu cells; test: Cell growth (cell number), Mv1Lu cells; format: cell-based, mink; details: IGFBP-3 0.5 μg/ml, 4-day
Description: (§1) FIG. 6 depicts the effects of IGFBP-3 and TGF-β1 on DNA synthesis (A), cell growth (B) and PAI-1 expression (C) in Mv1Lu and PEA-C11 cells. (A,B) Cells were incubated with various concentrations of IGFBP-3 (a) or TGF-β1 (b) as indicated. DNA synthesis and cell growth were determined by measuring the [methyl-^3H] thymidine incorporation into cellular DNA after 18 hr incubation (A) and by counting cell number after a 4-day incubation (B), respectively. The [methyl-^3H] thymidine incorporation in cells treated without IGFBP-3 and TGF-β1 (29,170±1,657 and 59,947±7,692 cpm/well for Mv1Lu and PEA-C11 cells, respectively) were taken as 0% inhibition. […] Each data point is the mean±S.D. of quadruplicate determinations. […] Data are representative of eight similar experiments. (C) Cells were incubated with various concentrations of TGF-β1 as indicated. After 2 hr at 37° C., the PAI-1 expression was determined by Northern blot analysis. The expression of glyceraldehyde-3-phosphate dehydrogenase (G3PDH) was used as control. The relative levels of the transcripts were quantified by a Phospholmager. Data are representative of four similar experiments.
(§2) Cells were plated at a density of 1-2×10^4 cells/dish in DMEM containing 1% fetal calf serum. The cell number was counted every day or after a 3-day incubation using a hematocytometer. The assays were performed in quadruplicate.

[3] = system: PEA-C11 cells; test: Cell growth (cell number), PEA-C11 cells; format: cell-based, mink; details: IGFBP-3 0.5 μg/ml, PEA-C11, 4-day
Description: as §1, §2

[4] = system: MEF cells; test: [methyl-3H] thymidine incorporation, MEF cells; format: cell-based, mouse; details: IGFBP-3 up to 1 μg/ml
Description: (§3) FIG. 7 depicts the effect of TGF-β1 on DNA synthesis (A), cell growth (B) and PAI-1 expression (C) in MEF and PEA-13 cells. (A) Cells were treated with various concentrations of TGF-β1 as indicated. DNA synthesis was determined by measuring [methyl-^3H] thymidine incorporation into cellular DNA. The [methyl-^3H] thymidine incorporation in cells treated without TGF-β1 (100,861±3,720 and 103,262±6,722 cpm/well for MEF and PEA-13 cells, respectively) was taken as 0% inhibition. The negative values of inhibition indicate mitogenic activity. […] Each datapoint is the mean±S.D. of quadruplicate determinations. […] Data are representative of six similar experiments. (B) Cells were treated with various concentrations of TGF-β1 as indicated. The cell number was counted after a 4 day incubation. […] The negative values of the inhibition indicate the growth stimulatory activity. Each datapoint is the mean±S.D. of quadruplicate determinations. […] Data are representative of four similar experiments. (C) Cells were treated with various concentrations of TGF-β1 as indicated. The PAI-1 expression in these cells was determined by Northern blot analysis. The expression of G3PDH was used as control. The relative levels of the transcripts were quantified by a PhosphoImager. Data are representative of four similar experiments. […]

[5] = system: PEA-13 cells; test: [methyl-3H] thymidine incorporation, PEA-13 cells; format: cell-based, mouse; details: IGFBP-3 up to 1 μg/ml
Description: as §3

[6] = system: MEF cells; test: Cell growth (cell number), MEF cells; format: cell-based, mouse; details: IGFBP-3 up to 1 μg/ml
Description: as §3, with “The expression of G3PDH was used as control.” left out, “PhosphoImager.” for “PhosphoImager. Data are representative of four similar experiments.”
Cells were plated at a density of 1-2×10^4 cells/dish in DMEM containing 1% fetal calf serum. The cell number was counted every day or after a 3-day incubation using a hematocytometer. […]

[7] = system: H1299/vector cells; test: [methyl-3H] thymidine incorporation, H1299/vector cells; format: cell-based, human; details: various concentrations
[8] = system: H1299/LRP cells; test: Cell growth (cell number), H1299/LRP cells; format: cell-based, human; details: TGF-β1 20 pM or IGFBP-3 1 μg/ml, 3-day
[9] = system: H1299/vector cells; test: Cell growth (cell number), H1299/vector cells; format: cell-based, human; details: TGF-β1 20 pM or IGFBP-3 1 μg/ml, 3-day
[10] = system: IRS-2; test: 32P metabolic labeling and immunoprecipitation of IRS-2, Mv1Lu cells; format: cell-based, mink
[11] = system: IRS-2; test: 32P metabolic labeling and immunoprecipitation of IRS-2, DR26 cells; format: cell-based, mink; details: IGFBP-3 1 μg/ml
[12] = system: IRS-2; test: 32P metabolic labeling and immunoprecipitation of IRS-2, MB102-16 cells; format: cell-based, mink; details: MB102-16 cells (αIβI); IGFBP-3 1 μg/ml, GM-CSF 1 nM
[13] = system: IRS-2; test: 32P metabolic labeling and immunoprecipitation of IRS-2, MB102-9 cells; format: cell-based, mink; details: MB102-9 cells (αIβII); IGFBP-3 1 μg/ml, GM-CSF 1 nM
[14] = system: 32D/IRS-1 cells; test: [methyl-3H] thymidine incorporation, 32D/IRS-1 cells; format: cell-based, murine; details: 32D cells expressing IRS-1
[15] = biological target: acidic pH binding sites (Neogale vison, UniProt A0A8C7BSJ2); test: Specific binding of 125I-ligands to Mv1Lu cells at acidic pH; design: species or system mink; details: Mv1Lu cells; EGTA/BAPTA- or GST-RAP-sensitive binding, 0° C.
[16] = biological target: TβR-V/IGFBP-3 receptor; details: Mv1Lu cells; read-out: Kd of IGFBP-3 binding to its receptor; cited from earlier work
[17] = system: R1B cells; details: IGFBP-3 0.5 μg/ml; cited from earlier work

Chain of acidic pH binding sites (A0A8C7BSJ2 entry or part of it): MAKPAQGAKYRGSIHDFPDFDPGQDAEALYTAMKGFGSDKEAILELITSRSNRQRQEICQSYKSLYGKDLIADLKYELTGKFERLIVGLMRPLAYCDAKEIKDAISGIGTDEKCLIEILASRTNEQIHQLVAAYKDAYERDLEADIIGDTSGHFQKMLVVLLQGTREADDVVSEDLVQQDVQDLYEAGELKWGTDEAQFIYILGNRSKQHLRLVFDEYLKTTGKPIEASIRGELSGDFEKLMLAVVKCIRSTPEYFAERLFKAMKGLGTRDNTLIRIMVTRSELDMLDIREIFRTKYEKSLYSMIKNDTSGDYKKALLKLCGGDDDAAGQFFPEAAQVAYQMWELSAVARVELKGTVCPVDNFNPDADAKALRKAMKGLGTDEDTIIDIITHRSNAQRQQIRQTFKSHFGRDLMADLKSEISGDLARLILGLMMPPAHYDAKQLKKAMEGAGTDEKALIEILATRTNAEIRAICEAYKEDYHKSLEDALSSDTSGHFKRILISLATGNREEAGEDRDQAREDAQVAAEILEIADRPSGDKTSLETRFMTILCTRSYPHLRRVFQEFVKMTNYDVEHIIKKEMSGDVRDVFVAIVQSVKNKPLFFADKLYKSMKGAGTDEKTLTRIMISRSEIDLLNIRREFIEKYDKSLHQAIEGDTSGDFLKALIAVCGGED

IGFBP-3: human insulin-like growth factor binding protein-3 expressed in E. Coli
Inhibition of DNA synthesis [1]: ~30% and 30-50%
Inhibition of cell growth [2]: ~70%
Inhibition of cell growth [3]: ~45%
Effect on DNA synthesis [4]: did not appear to have a significant effect
Effect on DNA synthesis [5]: did not appear to have a significant effect
Effect on cell growth [6]: did not appear to have a significant effect
Effect on DNA synthesis [7]: acted as mitogens or growth stimulators
Effect on cell growth [8]: inhibited
Effect on cell growth [9]: acted as mitogens or growth stimulators
Incubation time after which mobility change of 32P-labeled IRS-2 occurred ([10]; IGFBP-3 1 μg/ml, Mv1Lu): 0.5 h
Half-optimal concentration (ED50) to induce electrophoretic mobility change of 32P-labeled IRS-2 ([10]; Mv1Lu cells): 0.1 to 0.3 µg/mL
Induction of specific dephosphorylation (mobility change) of 32P-labeled IRS-2 ([10]; Mv1Lu, IGFBPs 1 μg/ml, TGF-β1 20 pM): induces specific dephosphorylation
Electrophoretic mobility change of IRS-2 compared with Mv1Lu and R1B cells [11]: induced a greater increase in electrophoretic mobility
Specific dephosphorylation (mobility change) of IRS-2 [12]: induced specific dephosphorylation
Specific dephosphorylation (mobility change) of IRS-2 [13]: induced specific dephosphorylation
Growth inhibitory response (DNA synthesis) [14]: potent growth inhibitory response
pH of optimal/maximal binding [15]: 5
Kd [16]: 6 nM
Inhibition of DNA synthesis [17]: 30-50%
